The nature of data set [1]: Excitation wavelength and light absorbance. It counts as physicochemical. The following applies: for Log (eps) / epsilon: 413.1 nm. The text has this: In Table 1, characteristics of the carbon acids are described. […] In this table, “obs” means “observed” and “c” means “calculated”. Of these, the PAC, anthracene, fits well with certain well established polymers. Referring to FIG. 4, the protonated form of this molecule is confirmed. […] The peak at 424 nm is the only peak within the visible region of the spectrum which decreases with time, and is the signature of anthracene's protonated form. It is this peak that is used to activate the anthracene polymeric actuator with visible light.

Data set [2] can be described thus: Acidity constants (pK) in ground, first excited singlet and triplet states. It is filed as physicochemical. Particulars: for pK (S0): ground state. The text has this: The term pK is a shorthand indicating the strength of an acid (pKa) and is defined as the −log10 K in which K is the characteristic equilibrium constant K, represented by:
where [H^+] is the hydrogen ion concentration and [B] is the concentration of the conjugate base. When the amount of one of these constituents is varied, the others will adjust to keep K constant.
(§1) In Table 1, characteristics of the carbon acids are described. […] In this table, “obs” means “observed” and “c” means “calculated”.
By utilizing visible light, the protonated form BH^+ of anthracene is disassociated into its base (B) and hydrogen ion (H^+) constituents to prompt a pH change from […]. […] The calculation in Table 2 is based on a pK(S0) value for anthracene found in Mackor. E. L., Hofstra, A., and Van Der Waals, J. H., 1958, in an article entitled “The Basicity of Aromatic Hydrocarbons”, Trans. Faraday Soc., vol. 54, 66.

Data set [3] is described as follows: Excited-state / phosphorescence lifetimes of candidate jump molecules. It counts as physicochemical. The following applies: for τp (excited-state lifetime, p for phosphorescence): carbon acids, obs = observed; for Lifetimes (mS): triplet, prolonged excited state.
Description: During the course of scientific research, the inventor constructed kinetic equations for the 3-level system of FIG. 1. Referring again to FIG. 1, an ideal “jump molecule” will be excited from ground state energy level (S0) to first excited singlet state energy level (S1), and return to the ground state via triplet state energy level (T1). The radiationless transition and radiative decay via phosphorescence will function as a “sink” for the molecules and because of their combined long lifetime, a prolonged molecule excited state will exist. The pH change produced by this excitation will last for the life of this excited state.
For example, the phenones are considered undesirable because the lifetimes of the protonated and non-protonated forms are very different, providing a rapid excited state deactivation channel. An example of this is benzophenone, having an unprotonated lifetime of 100 milliseconds and a protonated lifetime of 62 nanoseconds.
as §1

For data set [4] the following is noted: cited from earlier work.
The conditions of data set [5]: pK(S0), value from Mackor et al 1958; cited from earlier work.

With protonated anthracene [BH+], in data set [1], the “Log (eps)” value was determined as 4.38 and the epsilon was found to be 23988. Further, the “absorbance peak within the visible region” value in data set [1] (zero-time spectrum, FIG. 4) is 424 nm.

Take `N#CC1c2ccccc2-c2ccccc21` [9-cyanflourene]: the “pK (S0)” value in data set [2] is given as 11.4. The “τp (excited-state lifetime, p for phosphorescence)” value in data set [3] is listed as “obs”. The “λ00 (excitation wavelength necessary to initiate a pH change)” value in data set [1] is listed as 300 nm.

In the case of `O=S(=O)(O)c1ccc2cc(O)ccc2c1` [2-naphthol-6-sulfonate], the “excited-state pKa value” in data set [4] (S1 state, UV laser, from measured rate constants) is given as 1.9. Further, the “ground-state pKa value” in data set [4] is on record as 9.1. Also, the “change in pKa” value in data set [4] (ground vs excited state) is listed as 7 unit.

In the case of `c1ccc2c(c1)Cc1ccccc1-2` [fluorene], the “pK (S0)” value in data set [2] came out at 23.04. Moreover, in data set [3], the “τp (excited-state lifetime, p for phosphorescence)” value came to 0.35 ms. The “λ00 (excitation wavelength necessary to initiate a pH change)” value in data set [1] worked out at 300 nm.

In data set [3], `O=C(c1ccccc1)c1ccccc1` [benzophenone] registered a protonated lifetime of 62 nanoseconds and an unprotonated lifetime of 100 milliseconds.

`c1ccc(C2c3ccccc3-c3ccccc32)cc1` [9-phenylflourene]: the “pK (S0)” value in data set [2] came out at 18.6. The “τp (excited-state lifetime, p for phosphorescence)” value in data set [3] is “obs”. Moreover, the “λ00 (excitation wavelength necessary to initiate a pH change)” value in data set [1] is 305 nm.

Take `c1ccc2cc3ccccc3cc2c1` [Anthracene, anthracene]: the “pK's Singlet” value in data set [2] amounted to 13.6. The “pK's Triplet” value in data set [2] (pK(T1)) amounted to 10.3. In data set [3] (singlet excited state), the “Lifetimes nS” value was 10.0 nS. For the same molecule, the “Lifetimes (mS)” value in data set [3] was “(10.0) mS”. Moreover, the “Lifetimes (mS)” value in data set [3] (listed as anthracene) was determined as 10 mS. In data set [1], the “Log (eps)” value amounted to 0.04 and the epsilon came out at 1. The “pK's Ground” value in data set [5] is listed as 3.8.

(Values after patent US6776971B1, “Visible light pH change for activating polymers and other pH dependent reactants” (The United States of America as represented by the …, priority 1998, dated 2004).)
